Patent publication US9376440B2, “Pyrrolobenzodiazepines as antiproliferative agents” (MEDIMMUNE LIMITED, priority 2012, dated 2016)

Experiments:
A431 (epidermoid) = experiment: MTT cytotoxicity assay, A431; format: cell-based; settings: Homo sapiens, A-431, 96 h, read-out: IC50 (nM) A431
Method: (§1) The cytotoxicity potential of the compounds of the invention 16c-h was compared with the comparative compounds 16a, 16b and GWL-78 in a number of tumour cell lines and the non-cancer cell line WI38 after 96 hours exposure using the MTT (3-(4,5-Dimethylthiazol-2-yl)-2,5-diphenyltetrazolium bromide) colorimetric assay, as described below.
(§2) A panel of several types of human cancer cell lines including epidermoid (A431), lung (A549), ovarian (A2780) and breast (MCF7 and MDAMB-231), as well as the non-tumour cell line WI38, were used to determine the cytotoxicity of the compounds. The cells were grown in normal conditions at 37° C. under a 5% CO2 humidified atmosphere, either in Dulbecco's Modified Eagle Medium or Modified Eagle Medium (depending on the cell line), supplemented with 10% fetal bovine serum (Biosera, UK), 1% L-glutamine, 1% non-essential amino acids and 0.05% hydrocortisone (Gibco, Invitrogen, USA). Cells were then seeded into 96-well plates in a total volume of 160 μl, and allowed to reach a 30-40% degree of confluence before starting the experiment. The ligands were dissolved in sterilized ultrapure water at a maximum concentration of 100 μM, and serial decimal dilutions prepared. These were added to the cells in a volume of 40 μl. After 96 hours of continuous exposure to each ligand, the cytotoxicity was determined by the MTT (3-(4,5-Dimethylthiazol-2-yl)-2,5-diphenyltetrazolium bromide) (Lancaster Synthesis Ltd, UK) colorimetric assay (Skehan P, S. R., et al., Journal of the National Cancer Institute 1990, 82, 1107). Absorbance was quantified by spectrophotometry at A=570 nm (ELx808, Bio-Tek Instruments, Inc., USA). IC50 values were calculated by a dose-response analysis using the Origin 6.0™ software.

A549 (lung) = experiment: MTT cytotoxicity assay, A549; format: cell-based; settings: Homo sapiens, A549, 96 h, read-out: IC50 (nM) A549
Method: as §1, §2

A2780 (ovarian) = experiment: MTT cytotoxicity assay, A2780; format: cell-based; settings: Homo sapiens, A2780, 96 h, read-out: IC50 (nM) A2780
Method: as §1, §2

Mia Paca 2 = experiment: MTT cytotoxicity assay, Mia Paca 2; format: cell-based; settings: Homo sapiens, MIA PaCa-2, 96 h, read-out: IC50 (nM) Mia Paca 2
Method: as §1, §2

WI38 = experiment: MTT cytotoxicity assay, non-tumour cell line WI38; format: cell-based; settings: Homo sapiens, WI-38, 96 h, read-out: IC50 (nM) WI38
Method: as §1, §2

primary CLL cells = experiment: Annexin V/propidium iodide flow cytometry assay in primary CLL cells; format: cell-based; settings: CLL cell
Method: The cytotoxicity potential of the compounds of the invention 16c-h was also compared with the comparative compounds 16a, 16b and GWL-78 in a primary CLL cell lines using the Annexin V assay (van Engeland, M, et al., Cytometry 1998, 31, 1-9), as described below.
Freshly isolated peripheral blood CLL cells (1×10^8 mL^−1) were cultured in RPMI medium (Invitrogen, Paisley, U.K.) supplemented with 100 U/mL penicillin, […] streptomycin, and 10% fetal calf serum. The cells were incubated at 37° C. in a humidified 5% CO2 atmosphere in the presence of each compound. All compounds were dissolved in DMSO and were evaluated in serial dilutions against the primary CLL cells. In addition, control cultures were carried out to which no drug was added. The cytotoxic effects of the compounds were quantified using an annexin V/propidium iodide flow cytometry assay (Bender Medsystems, Vienna, Austria). All assays were performed in duplicate, and LD50 values were calculated from sigmoidal dose-response curves using the Prism 6.0 software (Graphpad Software Inc., San Diego, Calif.). The sigmoidal dose-response curves were derived by plotting log [compound concentration] against the percentage apoptosis induced by that concentration. A wide range of concentrations were used to establish the biologically active range for each individual compound.

[1] = MTD (maximum tolerated dose) study, intraperitoneal dosing; format: in vivo, mouse
Method: Initially a small scale study was carried out to determine the MTD (maximum tolerated dose) in Swiss-Webster mice using intraperitoneal dosing (IP). […] As 16f provided a marginally better toxicity profile in the MTD study, it was decided to carry out more extensive in vivo tumour xenograft studies on this molecule.

[2] = test system: MDA MB 231 breast cancer xenograft; experiment: ER-negative MDA MB 231 breast cancer xenograft study; format: in vivo, mouse; settings: for in vivo antitumour activity compared to control mice: female MF1 nude mice
Method: In vivo studies of the activity of 16f were carried out in an ER-negative MDA MB 231 breast cancer xenograft in a mouse model. The human breast cancer cell line MDA-MB-231 (5×10^8 cells) was employed to establish xenografts in the flanks of female MF1 nude mice, 2-3 months old and weighing 20-25 g. Subsequent passaging was by the subcutaneous implantation of small tumour pieces (approx 1 mm^3) into the flank. When the tumours reached approx. 0.06 cm^3 (three weeks post implantation) they were divided into 3 groups of 4 mice. The drug treated groups were administered with an IV dose (in DMSO) of either 250 μg/Kg/day or 300 μg/Kg/day for 5 consecutive days followed by two drug free days for 3 weeks, followed by 2 consecutive days in week 4 at which point the dosage was stopped.

[3] = test system: Mia Paca 2 pancreatic cancer xenograft; experiment: Mia Paca 2 pancreatic cancer xenograft in mouse model; format: in vivo
Method: (§3) An in vivo study of 16f was carried out in a pancreatic cancer xenograft mouse model, in a similar manner to the above. The drug (16f) treated group was administered an IV dose of 300 μg/Kg/day for 5 consecutive days followed by 2 drug free days, and the cycle was continued for 3 weeks.

NFκB = experiment: Immunohistochemical staining of xenograft tumour cross-sections; format: in vivo, mouse; settings: treated vs controls
Method: as §3

EGR = experiment: Transcription Factor Activation Profiling Array Assay (Signosis), HeLa; format: cell-based; settings: 10 nM, 4 hours
Method: (§4) 16f was evaluated in a commercial Transcription Factor Activation Profiling Array Assay™ (Signosis) using the HeLa cell line. In this assay the activities of 48 transcription factors could be monitored simultaneously using a collection of biotin-labeled DNA probes based on the consensus sequences of individual transcription factor DNA-binding sites. […] The activity of NF-κB was reduced by almost 50%.

NF-κB = experiment: as above; format: cell-based; settings: 10 nM, 4 hours
Method: as §4

NFAT = experiment: as above; format: cell-based; settings: 10 nM, 4 hours
Method: as §4

OCT-4 = experiment: as above; format: cell-based; settings: 10 nM, 4 hours
Method: as §4

SMAD = experiment: as above; format: cell-based; settings: 10 nM, 4 hours
Method: as §4

phosphorylated IκBα = experiment: Western Blotting in CLL cells, surrogate for NF-κB activity; format: cell-based; settings: 24 hours incubation, concentrations down to 0.1 nM
Excerpt: (§5) Based on the hypothesis that 16f may down-regulate the expression of NF-κB-dependent genes (e.g., IκB, BCL2, BCLXL) by binding to the cognate DNA sequence of NF-κB, thereby blocking interaction of the transcription factor protein and inhibiting transcription of a number of genes, it was decided to explore this possibility in CLL cells in which NF-κB signaling is known to be active and closely correlates with the initiation and progression of malignancy.

phosphorylated-p65 = experiment: as above; format: cell-based; settings: 24 hours incubation
Excerpt: as §5

Compound: COC(=O)c1cc(-c2ccc(NC(=O)c3nc(NC(=O)CCCOc4cc5c(cc4OC)C(=O)N4CCC[C@H]4C=N5)cn3C)cc2)cn1C [Compound 16f, (S)-methyl 4-(4-(4-(4-(7-methoxy-5-oxo-2,3,5,11a-tetrahydro-1H-pyrrolo[2,1-c][1,4]benzodiazepine-8-yloxy)butanamido)-1-methyl-1H-imidazole-2-carboxamido)phenyl)-1-methyl-1H-pyrrole-2-carboxylate]
- IC50 (A431 (epidermoid)): 0.018 nM
- IC50 (A549 (lung)): 0.034 nM
- IC50 (A2780 (ovarian)): 0.021 nM
- IC50 (Mia Paca 2): 0.0021 nM
- IC50 (WI38): 129 nM
- IC50 (primary CLL cells): 0.17 nM
- weight loss ([1]; Swiss-Webster mice, IP, 400 μg/Kg/day): insignificant weight loss
- weight loss or other signs of toxicity ([1]; repeat MTD experiment, 350 μg/Kg/day): did not show any weight loss or other signs of toxicity
- tumour re-growth after last IV dose ([2]; 300 μg/Kg dose level, up to 3 weeks after last dose): did not re-grow
- in vivo antitumour activity compared to control mice ([2]; IV 250 μg/Kg/day): prominent in vivo antitumour activity
- in vivo antitumour activity compared to control mice ([2]; IV 300 μg/Kg/day): prominent in vivo antitumour activity
- signs of toxicity ([2]; IV 250 and 300 μg/Kg dose levels): without any signs of toxicity
- tumour growth after last administered dose ([3]; 300 μg/Kg, up to 21 days after last dose): no growth was observed
- signs of toxicity ([3]; IV 300 μg/Kg dose level): without any signs of toxicity
- antitumour activity compared to control mice ([3]; IV 300 μg/Kg/day, 5 days on/2 days off, 3 weeks): prominent antitumour activity
- immunohistochemical staining findings (NFκB): consistent with NFκB inhibition
- down-regulation of EGR activity (EGR): at least 30%
- reduction of NF-κB activity (NF-κB; specific value): ~50%
- down-regulation of NF-κB activity (NF-κB; top five, at least): at least 30%
- down-regulation of NFAT activity (NFAT): at least 30%
- down-regulation of OCT-4 activity (OCT-4): at least 30%
- down-regulation of SMAD activity (SMAD): at least 30%
- suppression of phosphorylated IκBα (phosphorylated IκBα): significant suppression
- effect on phosphorylated-p65 (phosphorylated-p65): only a marginal effect
